ChEMBL document CHEMBL1125191, “Synthesis, stereochemistry, and biological activity of the 1-(1-phenyl-2-methylcyclohexyl)piperidines and the 1-(1-phenyl-4-methylcyclohexyl)piperidines. Absolute configuration of the potent trans-(-)-1-(1-phenyl-2-methylcyclohexyl)piperidine” (J Med Chem, 1991)

Assays:
[1] = molecular target: T1, Glutamate receptor ionotropic, NMDA 1 (Rattus norvegicus, UniProt P35439); assay: Binding affinity by displacement of [3H]TCP from PCP N-methyl-D-aspartate glutamate receptor of tissue homogenate preparation of rat brain without cerebellum; assay type: tissue-based
Mus musculus [2] = assay: ED50 value by rotarod test on mice at different dosage levels upon subcutaneous administration; assay type: functional; conditions: sc
Mus musculus [3] = assay: Effective dose after subcutaneous administration using rotarod test in mice; assay type: functional
[4] = molecular target: T1, Glutamate receptor ionotropic, NMDA 1; assay: Binding affinity by displacement of [3H]TCP from PCP N-methyl-D-aspartate glutamate receptor of tissue homogenate preparation of rat brain without cerebellum (in vitro); assay type: tissue-based

SMILES | Ki [1] | ED50 (Mus musculus [2]) | ED50 (Mus musculus [3]) | Ki [4] | ED50 (Mus musculus [3]; Mus musculus, sc, read-out: ED50)
N=C(c1ccccc1)C1(N2CCCCC2)CCCCC1 | 31 µM | > 100 mg/kg | – | – | –
CC1CCCCC1(C(=N)c1ccccc1)N1CCCCC1 (cis isomer) | 4.7 µM | > 100 mg/kg | – | – | –
CC1CCCCC1(c1ccccc1)N1CCCCC1 (stereo in doubt; 3) | – | – | >150 mg/kg | 7.4 µM | –
CC1CCC(c2ccccc2)(N2CCCCC2)CC1 (stereo in doubt; 17) | – | – | >150 mg/kg | 0.617 µM | –
CC1CCC(c2ccccc2)(N2CCCCC2)CC1 (stereo in doubt; 18) | – | – | 5.5 mg/kg | 0.166 µM | –
CC1CCCCC1(c1ccccc1)N1CCCCC1 (stereo in doubt; (+)-2) | – | – | 7.5 mg/kg | 0.1 µM | –
CC1CCCCC1(c1ccccc1)N1CCCCC1 (stereo in doubt; (+)-3) | – | – | >100 mg/kg | 2.94 µM | –
CC1CCCCC1(c1ccccc1)N1CCCCC1 (stereo in doubt; (-)-2) | – | – | 1.9 mg/kg | 0.011 µM | –
CC1CCCCC1(c1ccccc1)N1CCCCC1 (stereo in doubt; (-)-3) | – | – | – | 2.18 µM | –
CC1CCCCC1(c1ccccc1)N1CCCCC1 (trans isomer) | – | – | 3.3 mg/kg | 0.025 µM | –
CC1CCCCC1(C(=N)c1ccccc1)N1CCCCC1 (trans isomer) | 23 µM | – | – | – | –
c1ccc(C2(N3CCCCC3)CCCCC2)cc1 [PHENCYCLIDINE] | – | – | – | 0.053 µM | 4 mg/kg
